The test system of assay [1] is Lytechinus variegatus. The assay is described as follows: Antimitotic effect in Lytechinus variegatus at blastulae stage at 100 ug/mL. In kind it is functional, Blastula stage.
Another assay has as its system SF-295. The experiment in a line: Cytotoxicity against SF295 cells. It counts as functional, cell-based. The note with it: Homo sapiens.
In a further assay the test system is HL-60. The assay is described as follows: Cytotoxicity against HL60 cells. In kind it is functional, cell-based. The note with it: Homo sapiens.
A further assay relates to HCT-8. The experiment in a line: Cytotoxicity against HCT8 cells. Particulars: Homo sapiens. It counts as functional, cell-based.
In assay [2] the test system is Lytechinus variegatus. The assay is described as follows: Antimitotic effect in Lytechinus variegatus at first cleavage stage at 10 ug/mL. It counts as functional.
Assay [3] concerns Lytechinus variegatus. The experiment in a line: Antimitotic effect in Lytechinus variegatus at first cleavage stage at 100 ug/mL. It counts as functional.
The subject of assay [4] is Lytechinus variegatus. The experiment in a line: Antimitotic effect in Lytechinus variegatus at third cleavage stage at 100 ug/mL. It counts as functional.
The test system of assay [5] is Lytechinus variegatus. The experiment in a line: Antimitotic effect in Lytechinus variegatus at blastulae stage at 10 ug/mL. In kind it is functional, Blastula stage.
For a further assay, the system named is MDA-MB-435. The experiment in a line: Cytotoxicity against MDA-MB-435 cells. In kind it is functional, cell-based. The note with it: Homo sapiens.
Assay [6] deals with Lytechinus variegatus. The experiment in a line: Antimitotic effect in Lytechinus variegatus at third cleavage stage at 10 ug/mL. In kind it is functional.

For the molecule `CCOC(=O)CNC(=O)Cc1ccc2c(c1)OCO2`, the Activity was found to be 0.3% in the assay with Lytechinus variegatus [1]; 83% in the assay on Lytechinus variegatus [2]; 79.7% with Lytechinus variegatus [3]; 15.7% with Lytechinus variegatus [4]; 83.7% in the assay on Lytechinus variegatus [5]; 71.3% in the assay on Lytechinus variegatus [6]. The IC50 (commonly the midpoint of a concentration-inhibition curve) was 13.5 µM with SF-295, 18.7 µM with HL-60, 4.3 µM in the assay on HCT-8 and over 50 µM with MDA-MB-435.

`NC(=O)[C@H](Cc1ccc(Oc2c(Cl)cccc2Cl)cc1)NC(=O)Cc1cc2c(cc1[N+](=O)[O-])OCO2`: the Activity in the assay with Lytechinus variegatus [1] is recorded as 15%; in the assay on Lytechinus variegatus [2], 92.3%; in the assay on Lytechinus variegatus [3], 85.3%; with Lytechinus variegatus [4], 46%; in the assay with Lytechinus variegatus [5], 1.7%; in the assay on Lytechinus variegatus [6] it was 38%. For the same molecule, the IC50 in the assay with SF-295 was over 50 µM; with HL-60, over 50 µM; with HCT-8 it was 8.5 µM; in the assay with MDA-MB-435, 9.9 µM.

Take `CC(C)C[C@H](NC(=O)Cc1cc2c(cc1[N+](=O)[O-])OCO2)C(N)=O`: the Activity is reported as 89% with Lytechinus variegatus [1]; 88.3% in the assay with Lytechinus variegatus [2]; 94.3% in the assay with Lytechinus variegatus [3]; 72.7% in the assay with Lytechinus variegatus [4]; 80.3% in the assay with Lytechinus variegatus [5]; 77% in the assay with Lytechinus variegatus [6]. Further, the IC50 is 19.1 µM in the assay on SF-295, over 50 µM with HL-60, over 50 µM with HCT-8 and over 50 µM with MDA-MB-435.

With `CC(C)(C)OC(=O)NCCCC[C@H](NC(=O)Cc1cc2c(cc1[N+](=O)[O-])OCO2)C(N)=O`, the Activity in the assay on Lytechinus variegatus [1] came to 3.7%; in the assay with Lytechinus variegatus [2] it was 88.7%; in the assay with Lytechinus variegatus [3], 88.7%; with Lytechinus variegatus [4] it was 66.3%; in the assay on Lytechinus variegatus [5] it was 79.7%; with Lytechinus variegatus [6], 72.3%. The half-inhibitory concentration (IC50) was 31.6 µM with SF-295, 5.4 µM in the assay with HL-60, over 50 µM with HCT-8 and 9.2 µM in the assay on MDA-MB-435.

Turning to `CC[C@@H](C)[C@H](NC(=O)Cc1ccc2c(c1)OCO2)C(N)=O`, the Activity with Lytechinus variegatus [1] is 84.7%; in the assay on Lytechinus variegatus [2], 89.3%; in the assay with Lytechinus variegatus [3], 87.7%; with Lytechinus variegatus [4], 70.3%; in the assay on Lytechinus variegatus [5] it was 94.7%; with Lytechinus variegatus [6] it was 62%. For the same molecule, the IC50 with SF-295, with HL-60, in the assay with HCT-8 and in the assay on MDA-MB-435 was over 50 µM in each case.

Consider `COc1cccc2c1C(=O)c1c(O)c3c(c(O)c1C2=O)C[C@@](O)(C(=O)CO)C[C@@H]3O[C@H]1C[C@H](N)[C@H](O)[C@H](C)O1` [DOXORUBICIN], for which the Activity with Lytechinus variegatus [1] was 0%; in the assay on Lytechinus variegatus [2], 36%; in the assay with Lytechinus variegatus [3] it was 16.3%; in the assay with Lytechinus variegatus [4], 1.5%; with Lytechinus variegatus [5], 0.3%; in the assay on Lytechinus variegatus [6], 0%. Also, the concentration for half-maximal inhibition (IC50) in the assay on SF-295 was 0.42 µM; in the assay on HCT-8, 0.03 µM; in the assay with MDA-MB-435, 0.83 µM.

Consider `C=CCc1ccc2c(c1)OCO2` [SAFROLE], for which the Activity amounted to 0.3% in the assay on Lytechinus variegatus [1]; 59.5% in the assay with Lytechinus variegatus [2]; 0.7% in the assay with Lytechinus variegatus [3]; 0% with Lytechinus variegatus [4]; 31.7% with Lytechinus variegatus [5]; 33.7% in the assay with Lytechinus variegatus [6]. Besides, the IC50 in the assay on SF-295 came to 32.6 µM; with HL-60 it was 104 µM; with HCT-8 it was 36.1 µM; with MDA-MB-435 it was 105 µM.

Turning to `NC(=O)[C@H](Cc1ccccc1)NC(=O)Cc1cc2c(cc1[N+](=O)[O-])OCO2`, the Activity was determined as 0% in the assay with Lytechinus variegatus [1]; 86.3% in the assay on Lytechinus variegatus [2]; 1.7% in the assay on Lytechinus variegatus [3]; 5.3% in the assay with Lytechinus variegatus [4]; 92% in the assay with Lytechinus variegatus [5]; 73.3% in the assay with Lytechinus variegatus [6]. Further, the IC50 in the assay on SF-295, in the assay with HL-60, in the assay on HCT-8 and in the assay with MDA-MB-435 was over 50 µM in each case.

As to `C[C@H](NC(=O)Cc1ccc2c(c1)OCO2)C(N)=O`, the Activity in the assay on Lytechinus variegatus [1] came out at 87.7%; with Lytechinus variegatus [2], 76.3%; with Lytechinus variegatus [3], 76.5%; in the assay with Lytechinus variegatus [4], 78.7%; with Lytechinus variegatus [5] it was 92%; with Lytechinus variegatus [6] it was 68.3%. Also, the concentration for half-maximal inhibition (IC50) with SF-295, in the assay with HL-60, in the assay on HCT-8 and in the assay with MDA-MB-435 was over 50 µM throughout.

For `CC(C)[C@H](NC(=O)Cc1ccc2c(c1)OCO2)C(N)=O`, the Activity in the assay on Lytechinus variegatus [1] is 1%; with Lytechinus variegatus [2] it was 88%; in the assay on Lytechinus variegatus [3], 70.7%; with Lytechinus variegatus [4], 61.7%; with Lytechinus variegatus [5] it was 96.7%; in the assay with Lytechinus variegatus [6] it was 67%. Moreover, the concentration for half-maximal inhibition (IC50) in the assay on SF-295, in the assay on HL-60, in the assay with HCT-8 and in the assay on MDA-MB-435 was over 50 µM throughout.

For the origin of these results see ChEMBL document CHEMBL1144576, “Synthesis and antitumour evaluation of peptidyl-like derivatives containing the 1,3-benzodioxole system” (Eur J Med Chem, 2007).
